Data from patent US20140066449A1, “DIPYRIDINIUM DERIVATIVES” (SABREPHARM LIMITED, priority 2011, published 2014).
Read-outs that look alike come from different tables or passages of the source. Values belong to the compound of their own block, whether it stands above or below them.

Key:
HEK293 cells [1] = test: ROS production in intact HEK293 cells (DCFDA, flow cytometry); type: cell-based, human; conditions: 5 mM, 48 hours, absence and presence of pluronic acid 0.1%
Method: The ability of test compounds to impact ROS production in intact HEK293 cells after 48 hours exposure was assessed.
HEK293 cells were stained with 2′,7′-dichlorofluorescein diacetate (DCFDA; 10 μM, 30 minutes, 37° C.). The cells were then washed and resuspended to 250×10^5/ml. The stained HEK293 cells were seeded into a 24 well plate ([…]) in DMEM supplemented with 10% FCS, antibiotics and L-glutamine. Drugs at indicated concentrations were added followed by incubation for 48 hours at 37° C. before HEK293 cells were washed, trypsinised and resuspended in PBS prior to analysis for ROS production by flow cytometry.

HEK293 cells [2] = test: Cell death assay in HEK293 cells (PI staining, flow cytometry); type: cell-based, human; conditions: HEK293, 5 mM, 48 hours, in the presence of pluronic acid 0.1%
Method: The ability of test compounds to impact cell death in HEK293 cells after 48 hours exposure was assessed.
HEK293 cells were seeded into a 24 well plate ([…]) in DMEM supplemented with 10% FCS, antibiotics and L-glutamine. Drugs at indicated concentrations were added followed by incubation for 48 hours at 37° C. before HEK293 cells were washed, trypsinised and resuspended in PBS prior to PI staining (0.1 μg/ml) before analysis of PI+ ve cells by flow cytometry.

[3] = system: human mitochondria isolated from HEK293 cells; test: ROS production in isolated mitochondria (DCFDA); type: biochemical; conditions: isolated HEK293 mitochondria, 100 μM, 120 mins
Method: The ability of test compounds to impact ROS production in isolated mitochondria after 120 mins exposure was assessed.
Mitochondria were isolated from harvested human embryonic kidney (HEK293) cells (20×10^6) using a commercial kit (Thermo Scientific) before re-suspension in PBS to a final volume of 800 μL. […] Independent experiments (each assessing the impact of all four compounds along with a positive [AAPH; 5.0 mM] and vehicle control) were repeated three times.

M 14 [melanoma] = test: Combination with cisplatin, M14; type: cell-based
[4] = system: H460 non-small cell lung adenocarcinoma; test: MTT in vitro cytotoxicity, H460; type: cell-based; conditions: Homo sapiens, NCI-H460, 240 h, H460, 10 day exposure
Method: (§1) All were stored in the dark at 4° C. An accurately weighed amount of each compound was dissolved in DMSO and Hank's Balanced Salt Solution (Sigma) according to Table 2 below:
(§2) Further dilutions were made in complete RPMI1640 cell culture medium (RPMI1640 cell culture medium supplemented with 10% foetal bovine serum, 1 mM L-glutamine, and 2 mM sodium pyruvate (all from Sigma)).
(§3) H460 non-small cell lung adenocarcinoma, HT-29 colon adenocarcinoma and MCF-7 breast adenocarcinoma (ECACC, Salisbury, Wiltshire) were used for analysis. Cells were cultured in complete RPMI1640 cell culture medium, and maintained as monolayer cultures at 37° C. in a humidified 5% CO2 environment.
(§4) Tumour cell growth inhibition was assessed using the MTT assay with a standard 96 hour plus an extended 10 day incubation. For the 96 hour assay 1×10^4 cells were inoculated into each well of a 96-well plate and incubated overnight at 37° C. in a humidified atmosphere containing 5% CO2 to give time to adhere to the wells and form a monolayer. For the 10 day incubation, 1×102 (H460 and HT-29) and 1×103 (MCF-7) cells were inoculated. The next day, culture medium was removed from each well and replaced with cell culture media for the untreated control, or media containing compound, and the plates then incubated for a further 96 hours or 10 days. […] After 96 hours or 10 days culture medium was removed and 200 μL of 0.5 mgmL-1 MTT solution (Sigma) in complete medium added to each well. Following a further 4 hours incubation, the solution was removed from each well and 150 μL of DMSO added to solubilise the formazan crystals resulting from MTT conversion. Absorbance values for the resulting solutions were read at 550 nm on a Multiskan Ex microplate reader (Thermo Fisher, Loughborough, UK) and cell survival calculated as the absorbance of treated cells divided by the control. Results are expressed in terms of IC50 values (i.e. concentration of compound required to kill 50% of cells), which were determined manually in Microsoft Excel from plots of concentration versus percentage cell survival, and all experiments were performed in triplicate.

[5] = system: MCF-7 breast adenocarcinoma; test: MTT in vitro cytotoxicity, MCF-7; type: cell-based, human; conditions: Homo sapiens, MCF7, 240 h, MCF-7, 10 day exposure
Method: as §1, §2, §3, §4

A2780 [ovarian] = test: Combination with cisplatin, A2780; type: cell-based
[6] = system: A2780/cis [cisplatin ovarian resistant line]; test: Combination with cisplatin, A2780/cis; type: cell-based
MCF7 [Breast] = test: Combination with cisplatin, MCF-7; type: cell-based, human
[7] = system: HT-29 colon adenocarcinoma; test: MTT in vitro cytotoxicity, HT-29; type: cell-based; conditions: Homo sapiens, 240 h, HT-29, 10 day exposure
Method: as §1, §2, §3, §4

[8] = Redox potential study, square wave voltammetry; type: physicochemical; conditions: 0.1 mol dm-3 LiNTf2, 20° C., first scan
Method: BioAnalytical Systems CV50W potentiostat (from BAS Inc., USA)
Square wave voltammetry (4 mV step, 25 mV pulse, 10 Hz SW frequency)
3 mm diameter glassy carbon working electrode (from BAS)
3 mm diameter glassy carbon counter electrode (from BAS)
Saturated calomel reference electrode (SCE, from Sycopel Scientific Ltd., UK)
0.1 mol dm-3 lithium bis(trifluoromethanesulphonyl)imide ((LiNTf2)CAS 90076-65-6, from 3M)
Voltammograms were recorded from 0.5 V to −1.2 V in deoxygenated solutions of the Compounds.

[9] = system: cells (depending on the cell studied); conditions: read-out: LC 50, in vitro; cited from earlier work
dog = conditions: cited from earlier work
rat = conditions: oral; cited from earlier work
[10] = system: Modified mouse fibroblasts Nrf2−/−; conditions: cited from earlier work
[11] = compound 1 μM + cisplatin 10 μM
[12] = compound 3 μM + cisplatin 10 μM
[13] = compound 10 μM + cisplatin 1 μM
[14] = compound 10 μM + cisplatin 3 μM
[15] = compound 10 μM + cisplatin 10 μM
[16] = highest concentration 30 μM, read-out: IC50 Run 1
[17] = highest concentration 100 μM, read-out: IC50 Run 2
[18] = highest concentration 100 μM, read-out: IC50 Run 3
[19] = mean of runs, read-out: IC50 Mean

Structure (SMILES): CC(C)(N=NC(C)(C)C(=N)N)C(=N)N.Cl.Cl [AAPH]
ROS production (HEK293 cells [1]): induced ROS production in the absence and presence of pluronic acid | cell death (PI staining) (HEK293 cells [2]): inducedcell death in HEK293 cells in 2/3 experiments

Reduction potential 1 [8]: −0.460 V vs. SCE | Reduction potential 2 [8]: −0.932 V vs. SCE
Structure (SMILES): OCc1ccc2[n+](c1)CC[n+]1ccccc1-2 [Compound B, 3-(hydroxymethyl)-6,7-dihydrodipyrido[1,2-a:2′,1′-c]pyrazine-5,8-diium bistrifluoromethanesulfonate]
rank order of efficacy (ROS production) [3]: F>G>B>A | ROS production relative to vehicle treatment ([3]; room temperature): a more modest increase | % cell survival (M 14 [melanoma]; compound 1 μM + cisplatin 1 μM): 88.4% | % cell survival (M 14 [melanoma]; compound 1 μM + cisplatin 3 μM): 83.8% | % cell survival (M 14 [melanoma]; [11]): 58.4% | % cell survival (M 14 [melanoma]; compound 1 μM, cisplatin 0 μM): 93.2% | % cell survival (M 14 [melanoma]; compound 3 μM + cisplatin 1 μM): 78.9% | % cell survival (M 14 [melanoma]; compound 3 μM + cisplatin 3 μM): 72% | % cell survival (M 14 [melanoma]; [12]): 47.1% | % cell survival (M 14 [melanoma]; compound 3 μM, cisplatin 0 μM): 79.7% | % cell survival (M 14 [melanoma]; [13]): 55.7% | % cell survival (M 14 [melanoma]; [14]): 50.2% | % cell survival (M 14 [melanoma]; [15]): 33.4% | % cell survival (M 14 [melanoma]; compound 10 μM, cisplatin 0 μM): 59.2% | IC50 [4, 16]: 4.7 µM | IC50 [4, 17]: 4.7 µM | IC50 [4, 18]: 5 µM | IC50 [4, 19]: 4.8 µM | IC50 [5, 16]: 2.7 µM | IC50 [5, 17]: 2.3 µM | IC50 [5, 18]: 5.9 µM | IC50 [5, 19]: 3.6 µM | % cell survival (A2780 [ovarian]; compound 1 μM + cisplatin 1 μM): 55.2% | % cell survival (A2780 [ovarian]; compound 1 μM + cisplatin 3 μM): 20.3% | % cell survival (A2780 [ovarian]; [11]): 5.5% | % cell survival (A2780 [ovarian]; compound 1 μM, cisplatin 0 μM): 88.5% | % cell survival (A2780 [ovarian]; compound 3 μM + cisplatin 1 μM): 46.3% | % cell survival (A2780 [ovarian]; compound 3 μM + cisplatin 3 μM): 18.3% | % cell survival (A2780 [ovarian]; [12]): 5.4% | % cell survival (A2780 [ovarian]; compound 3 μM, cisplatin 0 μM): 59% | % cell survival (A2780 [ovarian]; [13]): 20.4% | % cell survival (A2780 [ovarian]; [14]): 11.7% | % cell survival (A2780 [ovarian]; [15]): 3.9% | % cell survival (A2780 [ovarian]; compound 10 μM, cisplatin 0 μM): 35.7% | % cell survival [6, 11]: 32.1% | % cell survival ([6]; compound 1 μM + cisplatin 30 μM): 6.5% | % cell survival ([6]; compound 1 μM + cisplatin 100 μM): 0% | % cell survival ([6]; compound 1 μM, cisplatin 0 μM): 74.4% | % cell survival [6, 12]: 24.2% | % cell survival ([6]; compound 3 μM + cisplatin 30 μM): 8.1% | % cell survival ([6]; compound 3 μM + cisplatin 100 μM): 3.3% | % cell survival ([6]; compound 3 μM, cisplatin 0 μM): 44.7% | % cell survival [6, 15]: 9% | % cell survival ([6]; compound 10 μM + cisplatin 30 μM): 5% | % cell survival ([6]; compound 10 μM + cisplatin 100 μM): 2.1% | % cell survival ([6]; compound 10 μM, cisplatin 0 μM): 15.4% | % cell survival (MCF7 [Breast]; compound 1 μM + cisplatin 0.1 μM): 87.3% | % cell survival (MCF7 [Breast]; compound 1 μM + cisplatin 0.3 μM): 77.9% | % cell survival (MCF7 [Breast]; compound 1 μM + cisplatin 1 μM): 72.3% | % cell survival (MCF7 [Breast]; compound 1 μM, cisplatin 0 μM): 76.2% | % cell survival (MCF7 [Breast]; compound 3 μM + cisplatin 0.1 μM): 81.4% | % cell survival (MCF7 [Breast]; compound 3 μM + cisplatin 0.3 μM): 73.2% | % cell survival (MCF7 [Breast]; compound 3 μM + cisplatin 1 μM): 74.3% | % cell survival (MCF7 [Breast]; compound 3 μM, cisplatin 0 μM): 69.1% | % cell survival (MCF7 [Breast]; compound 10 μM + cisplatin 0.1 μM): 63.7% | % cell survival (MCF7 [Breast]; compound 10 μM + cisplatin 0.3 μM): 51.7% | % cell survival (MCF7 [Breast]; [13]): 46.3% | % cell survival (MCF7 [Breast]; compound 10 μM, cisplatin 0 μM): 67.3% | IC50 [7, 16]: 1.8 µM | IC50 [7, 17]: 1.2 µM | IC50 [7, 18]: 1.8 µM | IC50 [7, 19]: 1.6 µM

Structure (SMILES): c1cc[n+]2c(c1)-c1cccc[n+]1CC2 [Diquat]
CC50 [9]: 40 to 180 µM | LD50 dog (dog; in vivo, po): 100 to 200 mg/kg | LD50 rat (rat): 231 mg/kg | sensitivity to diquat compared to normal unmodified [wildtype] cells [10]: approximately a fourfold increase in sensitivity

Structure (SMILES): COc1cccc2c1C(=O)c1c(O)c3c(c(O)c1C2=O)C[C@@](O)(C(=O)CO)C[C@@H]3O[C@H]1C[C@H](N)[C@H](O)[C@H](C)O1 [Doxorubicin]
LD50 dog (dog; oral): 2.0 mg/kg | LD50 rat (rat): 12.5 mg/kg

Structure (SMILES): CN(Cc1cnc2nc(N)nc(N)c2n1)c1ccc(C(=O)N[C@@H](CCC(=O)O)C(=O)O)cc1 [Methotrexate]
LD50 dog (dog; oral): 120 mg/kg | LD50 rat (rat): 180 to 320 mg/kg
